Values joined by “and” are separate entries in the source; they are usually repeats but may differ in a detail not shown here. Equal values may be shown once. “Also recorded” adds a separate entry of the source.
Key:
R55 mRNA = assay: Rabbit ovary explant culture treated with EGF, R55 mRNA by Northern blot; type: cell-based; conditions: EGF 50 ng/ml
Description: A method to culture pieces of ovaries from 14 d.pp. rabbits was developed, modeled after techniques used for ovaries from neonatal mice and bovine embryos. Tissue pieces (1-2 mm^3) from 14 d.pp. rabbit ovaries containing only primordial follicles were placed in cell culture inserts with 3.0 mm pores and cultured in 24-well plates with 300 microliters medium (50-50 blend of (a) F-12 Nutrient Mixture (Ham)(1×), liquid contains L-glutamine, and (b) Medium 199 (1×), liquid contains Earle's modified salts, 1.250 mg/L sodium bicarbonate, and L-glutamine.
Cultures were treated with mouse EGF (50 ng/ml) and analyzed for the level of expression of R55 mRNA. Treatment with EGF produced a 3-fold increase in amount of R55 mRNA (normalized to 28 S) as compared to controls incubated in medium alone (FIG. 3).
Ovaries were collected from 2 week old rabbits and the tissue mince into small pieces (-1 mm^3). These ovarian explants were then cultured for 6 days in the presence or absence of EGF (50 ng/ml). Total RNA was isolated and the relative amount of R55mRNA measured by Northern blot analysis. The result of 3 experiments were averaged and graphed. The level of P55 expression in the controls was defined as one. The level of expression of the epidermal growth factor treated samples was approximately 3 fold of that seen in the controls. […] This effect is due to an increase in the number of follicles being activated.

[1] = tested on: antiserum to recombinant porcine EGF; conditions: radioimmunoassay with antiserum to recombinant porcine EGF; cited from earlier work
young female pigs [2] = assay: In vivo rec-pEGF by subcutaneous osmotic pumps, Group 2 pigs, body and organ weights at necropsy
[3] = tested on: granulosa cells from primary pig follicles; assay: DNA synthesis in granulosa cells from primary pig follicles; type: cell-based; conditions: EGF 50 ng/ml
[4] = tested on: pig ZP proteins in isolated primordial follicles; assay: Isolated pig primordial follicles cultured with EGF, ZP proteins by protein dot blot; type: cell-based; conditions: EGF 50 ng/ml, 6 days
Protocol: FIG. 16 graphically presents the results of studying the effect of EGP on ZP expression in isolated primordial follicles. As in the previous experiment, ovaries were collected from immature pigs at 3 to 5 weeks of age. In this case the ovaries were minced and the follicles enzymatically separated from the connective tissues and isolated. The population of small primordial follicles were collected and grown in cell culture well inserts. These were cultured for six days in medium alone as control or in medium supplemented with 50 nanograms per ml of EGF. After 6 days of culture the follicles were collected and proteins isolated and solubilized. The amount of total zona pellucida protein in these samples was determined using an antibody developed in guinea pigs against total zona pellucida proteins. The amount of porcine zona pellucida proteins in these samples were determined by dot blot analysis and quantified by optical density. The relative amount of zona pellucida protein is graphed in FIG. 16 for each sample (control and EGF treated 50 ng/ml). This was done for 3 replicates. […] This is consistent with the hypothesis that EGF can stimulate activation of dormant primordial follicles as indicated by the expression of zona pellucida genes.

mini-pigs = conditions: minipig, in vivo; cited from earlier work
pig ZP proteins = assay: Pig ovarian explant culture with EGF, ZP proteins by protein dot blot; type: cell-based; conditions: EGF 50 ng/ml, 6 days
Protocol: For this first experiment ovaries were collected form pigs at three to five weeks of age at which the pig ovaries are very immature. The ovaries were then minced into small pieces and grown in ovarian explant cultures with or without EGF (similar to what we have done with the rabbit ovaries). After 6 days of culture the tissue was collected and in this case proteins from these samples were isolated and solubilized. The amount of total zona pellucida protein in these samples was determined using an antibody we developed in guinea pigs against total zona pellucida proteins. The amount of porcine zona pellucida proteins in these samples were determined by dot blot analysis and quantified by optical density. The relative amount of zona pellucida protein is graphed for each sample (control and EGF treated 50 ng/ml). This was done for 3 replicates.

mature rats = conditions: intravenously infused for a four-week period; cited from earlier work
neonatal mouse ovaries = neonatal mouse ovaries cultured in vitro; cited from earlier work
FSH receptors = assay: Expression of FSH receptors in granulosa cells from antral pig follicles; type: cell-based; conditions: EGF 50 ng/ml
young female pigs [5] = conditions: pig, in vivo
[6] = tested on: Swiss 3T3 fibroblast cells; assay: 3T3 fibroblast proliferation assay ([H3]-thymidine incorporation); type: cell-based; conditions: quiescent Swiss 3T3 cells
Protocol: In FIG. 21, the bioactivity of EGF was tested in a 3T3 fibroblast proliferation assay. EGF was added to quiescent Swiss 3T3 fibroblast cells and stimulation of fibroblast proliferation was measured by [H^3 ]-thymidine incorporation as an indicator of DNA synthesis.

young female pigs [7] = assay: In vivo rec-pEGF by subcutaneous osmotic pumps, Group 1 pigs, histological evaluation of ovarian follicles; parameters: species or system pig
Protocol: Finally, FIG. 23 is a graph which confirms that in vivo administration of rec-pEGF to the Group 1 pigs, above, starting at 30 d.pp. and administered for fourteen consecutive days at a 540 μg/day dose by placement of subcutaneous osmotic pumps in each pig. Ovaries from a sub-set of Group 1 pigs were examined at 70 d.pp. when the first cohort of growing follicles is normally expected to be present. […] Data was obtained by counting the number of hematoxylin/eosin stained follicles in a counting frame (960×1400 μm), and only sections through the center of a follicle with the germinal vesicle present were used for the evaluation. Growing follicles were identified based upon the presence of at least one cuboidal layer of granulosa cells surrounding the oocyte.

[8] = average of ten largest follicles, 540 μg/day for fourteen days

mouse EGF: EGF originally purified from the male mouse submaxillary gland; used in the rabbit ovary cultures (NSYPGCPSSYDGYCLNGGVCMHIESLDSYTCNCVIGYSGDRCQTRDLRWWELR; Epidermal growth factor; UniProt P01132 977-1029, looked up)
increase in amount of R55 mRNA as compared to controls (R55 mRNA; normalized to 28S, controls in medium alone): 3 fold
cross-reactivity [1]: < 1%

EGF: 53-residue polypeptide that is mitogenic for a variety of cell types both in vivo and in vitro
Avg. Daily Gain (young female pigs [2]; Group 2, N = 3): 0.32 ± 0.06 kg/day
Day 14 Weight (young female pigs [2]; Group 2, N = 3): 4.6 ± 0.24 kg
Day 70 Weight (young female pigs [2]; Group 2, N = 3): 22.7 ± 3.40 kg
DNA synthesis in granulosa cells from primary pig follicles [3]: stimulates
Optical density of ZP proteins from cultured primordial follicles ([4]; follicles of pigs 3 to 5 weeks of age, single replicates): 1815 and 371 and 1697
expression of zona pellucida proteins in primordial follicles (in words) ([4]; versus medium alone): significant increase
Optical density of ZP proteins from cultured primordial follicles, Avg. ZP ([4]; average of 3 replicates): 1294
organ growth in mini-pigs (mini-pigs): stimulate growth of heart, liver, and urinary tract
Optical density of ZP proteins from ovarian explant cultures (pig ZP proteins; ovaries of pigs 3 to 5 weeks of age, single replicates): 6355 and 6086 and 7193
increase in the amount of zona pellucida protein in EGF treated ovarian explants (pig ZP proteins; versus control): approximately a two fold increase
Optical density of ZP proteins from ovarian explant cultures, Avg. ZP (pig ZP proteins; average of 3 replicates): 6545
number of corpora lutea (CL) (mature rats): increase in the number of corpora lutea
ovarian weights (mature rats): ovarian weights were increased
ratio of R55 to 28S optical densities from Northern blots (R55 mRNA; 6 days, ovarian explants of 2 week old rabbits, control = 1, single experiments): 2.87 and 3.09 and 3.28
ratio of R55 to 28S optical densities from Northern blots, average (R55 mRNA; 6 days, average of 3 experiments, control = 1): 3.08
expression of R55 in primordial rabbit ovarian follicles (in words) (R55 mRNA; Northern blot): increased expression of R55; also recorded: significant increases in expression of R55
number of eggs recovered for in vitro maturation and fertilization (neonatal mouse ovaries): increased the number of eggs recovered
expression of FSH receptors in granulosa cells from antral pig follicles (FSH receptors): stimulates

rec-pEGF: recombinant porcine EGF expressed in a bacterial system, with 6X histidine tag and 19 vector amino acids
effect on organ weights, body weights and general pathology (young female pigs [5]): lack of effect
Stimulation of fibroblast proliferation [6]: comparable to that of purified mouse EGF
increase in size of the ovaries (young female pigs [2]; 600 μg/day for fourteen days from 21 d.pp., tissues collected at 10 weeks, versus control and untreated group): ~100%
greater population of growing follicles than in control or non-treated groups (young female pigs [7]; 540 μg/day for fourteen days from 30 d.pp., necropsy fourteen days post-treatment): 70%
size of ovarian follicles (in words) (young female pigs [7]; 540 μg/day for fourteen days from 30 d.pp., versus control or non-treated groups): larger ovarian follicles
number of ovarian follicles at 70 d.pp. (in words) (young female pigs [7]; 540 μg/day for fourteen days from 30 d.pp., versus control group and group administered nothing): significantly increased
follicle diameter greater than that of the control group (young female pigs [7]; [8]): over 100%
follicle diameter greater than that of the group given nothing (young female pigs [7]; [8]): over 70%

From US6300311A, “Regulation of vertebrate ovarian maturation and function using growth factors” (Texas Tech University, priority 1998, dated 2001)
